Data reported in patent US12161630B2, “Methods to control infection using new generation small molecule growth inhibitors” (priority 2017, dated 2024).

Experiments:
S. typhimurium WT [1] = test: High-throughput primary screen for S. typhimurium growth inhibitors at 200 μM; format: cell-based, Salmonella enterica subsp. enterica serovar Typhimurium LT2; conditions: adjusted M9 minimal broth, 12 hrs, 37° C., bactericidal = 100% growth inhibition and no growth on XLT4 agar, bacteriostatic = 100% growth inhibition but growth on XLT4 agar
Experimental: Identification of S. typhimurium growth inhibitors: The 4182 small molecules (SMs) were screened at 200 μM against S. typhimurium WT using HTS assay in a 96-well plate format. An overnight Salmonella suspension was normalized at 0.05 OD600 (approximately 3.5×10^7 CFU/ml) with an adjusted M9 minimal broth medium (12.7 mM Na2HPO4 7H2O; 22 mM KH2PO4; 18.7 mM NH4Cl; 2 mM MgSO4; 0.1 mM CaCl2; 0.4% glucose; 0.05% casamino acids). 100 μL of the suspension plus 2 μl of SMs (200 μM) were transferred into each well of a sterile, non-treated, flat bottom 96-well plate. Bacteria alone (negative control, NC), 2% DMSO plus bacteria (DMSO control), 20 μg/ml chloramphenicol or 50 μg/ml kanamycin plus bacteria (positive controls, PC), and M9 medium only were used as control. Plates were incubated in a Sunrise™ Tecan kinetic microplate reader for 12 hrs at 37° C. and the optical density (OD) was measure at 600 nm as described above. Percentage of inhibition=[…]. SMs were identified as growth inhibitors if their inhibition value after incubation was above 20% (value representing the inhibition level monitored with the DMSO controls). Cultures from wells showing no turbidimetric increase were transferred onto a XLT4 agar plate. Plates were incubated at 37° C. for 36 hrs.

S. typhimurium WT [2] = test: Combined antimicrobial study between antibiotics and SMs; format: cell-based, Salmonella enterica subsp. enterica serovar Typhimurium LT2; conditions: for MBCAlone (MBC of the antibiotic by itself, no SM): S. typhimurium WT, adjusted M9 minimal broth; for MBCComb4 (MBC of antibiotic in antibiotic+SM4 combination) / SM4R (result of synergy testing, antibiotic+SM4): [SM4] 10 μM; for MBCComb5 (MBC of antibiotic in antibiotic+SM5 combination) / SM5R (result of synergy testing, antibiotic+SM5): [SM5] 25 μM; for effect of the presence of SM on antibiotic MBC: combined with SM1, SM3, SM4 or SM5; for reduction in MBC when combined with SM1: antibiotic combined with SM1
Experimental: Combined antimicrobial study between antibiotics and small molecules (SMs): The antimicrobial efficacy of several antibiotics commonly used to control Salmonella was studied once combined with the selected four SMs. […] The MBC of each antibiotic were pre-determined as described previously. Bacteria challenged with only SMs or antibiotics at the same concentrations were used to determine the ATB-SM combination effects. […] Plates were incubated in a Sunrise™ Tecan kinetic microplate reader for 12 hrs at 37° C. and the optical density (OD) was measure at 600 nm as described above. After challenging, survival was recorded following plating of the bacterial suspension on agar plate and incubated at 37° C. for 36 hrs. The ATB-SM combination effect was calculated as described in Doern CD, 2014 (12).

CN1C(=O)NC(=O)C(=Cc2ccc([N+](=O)[O-])o2)C1=O [SM17, 1-methyl-5-[(5-nitro-2-furyl)methylene]-2,4,6(1H,3H,5H)-pyrimidinetrione]
Effect on S. Typhimurium at 200 μM (S. typhimurium WT [1]): Bacteriostatic

COc1cccc(N=Cc2cc(Br)ccc2O)c1 [SM16, 4-bromo-2-{[(3-methoxyphenyl)imino]methyl}phenol]
Effect on S. Typhimurium at 200 μM (S. typhimurium WT [1]): Bacteriostatic

CC[C@H]1OC(=O)[C@H](C)[C@@H](O[C@H]2C[C@@](C)(OC)[C@@H](O)[C@H](C)O2)[C@H](C)[C@@H](O[C@@H]2O[C@H](C)C[C@H](N(C)C)[C@H]2O)[C@](C)(O)C[C@@H](C)C(=O)[C@H](C)[C@@H](O)[C@]1(C)O [Erythromycin, erythromycin]
MBCAlone (MBC of the antibiotic by itself, no SM) (S. typhimurium WT [2]): 200 µg/mL
MBCComb1 (MBC of antibiotic in antibiotic+SM1 combination) (S. typhimurium WT [2]; [SM1] 50 μM): 200 µg/mL
SM1R (result of synergy testing, antibiotic+SM1) (S. typhimurium WT [2]; [SM1] 50 μM): Ind
MBCComb3 (MBC of antibiotic in antibiotic+SM3 combination) (S. typhimurium WT [2]; [SM3] 25 μM): 200 µg/mL
SM3R (result of synergy testing, antibiotic+SM3) (S. typhimurium WT [2]; [SM3] 25 μM): Ind
MBCComb4 (MBC of antibiotic in antibiotic+SM4 combination) (S. typhimurium WT [2]): 200 µg/mL
SM4R (result of synergy testing, antibiotic+SM4) (S. typhimurium WT [2]): Ind
MBCComb5 (MBC of antibiotic in antibiotic+SM5 combination) (S. typhimurium WT [2]): 200 µg/mL
SM5R (result of synergy testing, antibiotic+SM5) (S. typhimurium WT [2]): Ind
effect of the presence of SM on antibiotic MBC (S. typhimurium WT [2]): no effect

CCOC(=O)c1c(N)sc(C(C)=O)c1C [SM10, ethyl 5-acetyl-2-amino-4-methyl-3-thiophenecarboxylate]
Effect on S. Typhimurium at 200 μM (S. typhimurium WT [1]): Bacteriostatic

COc1ccc(CNCc2ccc(C)cc2)cc1OCC(O)CN1CCCCCCC1 (stereo not shown) [SM15, 1-(1-azocanyl)-3-(2-methoxy-5-{[(4-methylbenzyl)amino]methyl}phenoxy)-2-propanol]
Effect on S. Typhimurium at 200 μM (S. typhimurium WT [1]): Bacteriostatic

CCn1cc(C(=O)O)c(=O)c2ccc(C)nc21 [Nalidixic Acid, nalidixic acid]
MBCAlone (MBC of the antibiotic by itself, no SM) (S. typhimurium WT [2]): 16 µg/mL
MBCComb1 (MBC of antibiotic in antibiotic+SM1 combination) (S. typhimurium WT [2]; [SM1] 30 μM): 8 µg/mL
SM1R (result of synergy testing, antibiotic+SM1) (S. typhimurium WT [2]; [SM1] 30 μM): Ind
MBCComb1 (MBC of antibiotic in antibiotic+SM1 combination) (S. typhimurium WT [2]; [SM1] 40 μM): 4.8 µg/mL
SM1R (result of synergy testing, antibiotic+SM1) (S. typhimurium WT [2]; [SM1] 40 μM): Ind
MBCComb3 (MBC of antibiotic in antibiotic+SM3 combination) (S. typhimurium WT [2]; [SM3] 25 μM): 16 µg/mL
SM3R (result of synergy testing, antibiotic+SM3) (S. typhimurium WT [2]; [SM3] 25 μM): Ind
MBCComb4 (MBC of antibiotic in antibiotic+SM4 combination) (S. typhimurium WT [2]): 16 µg/mL
SM4R (result of synergy testing, antibiotic+SM4) (S. typhimurium WT [2]): Ind
MBCComb5 (MBC of antibiotic in antibiotic+SM5 combination) (S. typhimurium WT [2]): 16 µg/mL
SM5R (result of synergy testing, antibiotic+SM5) (S. typhimurium WT [2]): Ind
reduction in MBC when combined with SM1 (S. typhimurium WT [2]): up to 70%

COc1cccc(N=Cc2cc(Cl)cc(Cl)c2O)c1 [SM8, 2,4-dichloro-6-{[(3-methoxyphenyl)imino]methyl}phenol]
Effect on S. Typhimurium at 200 μM (S. typhimurium WT [1]): Bactericidal

C[C@@H](O)[C@H]1C(=O)N2C(C(=O)O)=C(S[C@@H]3CN[C@H](C(=O)N(C)C)C3)[C@H](C)[C@H]12 [Meropenem, meropenem]
MBCAlone (MBC of the antibiotic by itself, no SM) (S. typhimurium WT [2]): 0.2 µg/mL
MBCComb1 (MBC of antibiotic in antibiotic+SM1 combination) (S. typhimurium WT [2]; [SM1] 5 μM): 0.16 µg/mL
SM1R (result of synergy testing, antibiotic+SM1) (S. typhimurium WT [2]; [SM1] 5 μM): Add
MBCComb1 (MBC of antibiotic in antibiotic+SM1 combination) (S. typhimurium WT [2]; [SM1] 10 μM): 0.08 µg/mL
SM1R (result of synergy testing, antibiotic+SM1) (S. typhimurium WT [2]; [SM1] 10 μM): Add
MBCComb1 (MBC of antibiotic in antibiotic+SM1 combination) (S. typhimurium WT [2]; [SM1] 20 μM): 0.04 µg/mL
SM1R (result of synergy testing, antibiotic+SM1) (S. typhimurium WT [2]; [SM1] 20 μM): Add
MBCComb3 (MBC of antibiotic in antibiotic+SM3 combination) (S. typhimurium WT [2]; [SM3] 15 μM): 0.16 µg/mL
SM3R (result of synergy testing, antibiotic+SM3) (S. typhimurium WT [2]; [SM3] 15 μM): Ind
MBCComb3 (MBC of antibiotic in antibiotic+SM3 combination) (S. typhimurium WT [2]; [SM3] 20 μM): 0.08 µg/mL
SM3R (result of synergy testing, antibiotic+SM3) (S. typhimurium WT [2]; [SM3] 20 μM): Ind
MBCComb4 (MBC of antibiotic in antibiotic+SM4 combination) (S. typhimurium WT [2]): 0.2 µg/mL
SM4R (result of synergy testing, antibiotic+SM4) (S. typhimurium WT [2]): Ind
MBCComb5 (MBC of antibiotic in antibiotic+SM5 combination) (S. typhimurium WT [2]): 0.2 µg/mL
SM5R (result of synergy testing, antibiotic+SM5) (S. typhimurium WT [2]): Ind
reduction in MBC when combined with SM1 (S. typhimurium WT [2]): up to 80%

O=[N+]([O-])c1ccc(F)c(N=Cc2cc(Cl)cc(Cl)c2O)c1 [SM7, 2,4-dichloro-6-{[(2-fluoro-5-nitrophenyl)imino]methyl}phenol]
Effect on S. Typhimurium at 200 μM (S. typhimurium WT [1]): Bactericidal

COc1cccc(C2(c3ccc(O)cc3)CCCC2)c1 [SM11, 4-[1-(3-methoxyphenyl)cyclopentyl]phenol]
Effect on S. Typhimurium at 200 μM (S. typhimurium WT [1]): Bacteriostatic

CC1=NN(c2ccccc2)C(=O)C1C(=O)c1ccccc1 (stereo not shown) [SM18, 4-benzoyl-5-methyl-2-phenyl-2,4-dihydro-3H-pyrazol-3-one]
Effect on S. Typhimurium at 200 μM (S. typhimurium WT [1]): Bacteriostatic

C(=Cc1ccccc1)CN1CCN(C2c3ccccc3-c3ccccc32)CC1 [SM19, 1-(9H-fluoren-9-yl)-4-(3-phenyl-2-propen-1-yl)piperazine]
Effect on S. Typhimurium at 200 μM (S. typhimurium WT [1]): Bacteriostatic

Clc1ccc(CCNC2CCN(Cc3ccccc3)CC2)c(Cl)c1 [SM13, 1-benzyl-N-[2-(2,4-dichlorophenyl)ethyl]-4-piperidinamine]
Effect on S. Typhimurium at 200 μM (S. typhimurium WT [1]): Bacteriostatic

CN(Cc1ccccc1)CC(O)COc1ccc(CNCc2ccc(Cl)s2)cc1 (stereo not shown) [SM6, 1-[benzyl(methyl)amino]-3-[4-({[(5-chloro-2-thienyl)methyl]amino}methyl)phenoxy]-2-propanol]
Effect on S. Typhimurium at 200 μM (S. typhimurium WT [1]): Bactericidal

CO/N=C(\C(=O)N[C@@H]1C(=O)N2C(C(=O)O)=C(COC(C)=O)CS[C@H]12)c1csc(N)n1 [Cefotaxime, cefotaxime]
MBCAlone (MBC of the antibiotic by itself, no SM) (S. typhimurium WT [2]): 3.2 µg/mL
MBCComb1 (MBC of antibiotic in antibiotic+SM1 combination) (S. typhimurium WT [2]; [SM1] 50 μM): 3.2 µg/mL
SM1R (result of synergy testing, antibiotic+SM1) (S. typhimurium WT [2]; [SM1] 50 μM): Ind
MBCComb3 (MBC of antibiotic in antibiotic+SM3 combination) (S. typhimurium WT [2]; [SM3] 25 μM): 3.2 µg/mL
SM3R (result of synergy testing, antibiotic+SM3) (S. typhimurium WT [2]; [SM3] 25 μM): Ind
MBCComb4 (MBC of antibiotic in antibiotic+SM4 combination) (S. typhimurium WT [2]): 3.2 µg/mL
SM4R (result of synergy testing, antibiotic+SM4) (S. typhimurium WT [2]): Ind
MBCComb5 (MBC of antibiotic in antibiotic+SM5 combination) (S. typhimurium WT [2]): 3.2 µg/mL
SM5R (result of synergy testing, antibiotic+SM5) (S. typhimurium WT [2]): Ind
effect of the presence of SM on antibiotic MBC (S. typhimurium WT [2]): no effect

O=C(O)c1cc(NN=Nc2ccc(Br)cc2)cc([N+](=O)[O-])c1 [SM12, 3-[3-(4-bromophenyl)-2-triazen-1-yl]-5-nitrobenzoic acid]
Effect on S. Typhimurium at 200 μM (S. typhimurium WT [1]): Bacteriostatic

CC(C)Cc1ccc(CN2CCCC(NC(=O)CN3CCCN(C)CC3)C2)cc1 (stereo not shown) [SM9, N-[1-(4-isobutylbenzyl)-3-piperidinyl]-2-(4-methyl-1,4-diazepan-1-yl)acetamide]
Effect on S. Typhimurium at 200 μM (S. typhimurium WT [1]): Bactericidal
